Values quoted from earlier work as cited in patent publication US20130109707A1, “FLUOROURACIL DERIVATIVES” (Concert Pharmaceuticals ,Inc., priority 2010, published 2013).

Details: patients treated with carmofur or with 5-fluorouracil; reported by Mixutani, Brain Nerve 2008

Structure (SMILES) | cases of leukoencephalopathy [%]
O=c1[nH]cc(F)c(=O)[nH]1 [5-fluorouracil] | 0.026
CCCCCCNC(=O)n1cc(F)c(=O)[nH]c1=O [carmofur, 5-fluoro-N-hexyl-2,4-dioxo-pyrimidine-1-carboxamide] | 0.026
